Source: patent US11247973B2 (The University of Durham, priority 2016, dated 2022)
pIC50: −log10 of the molar value. Values joined by “and” are separate entries in the source; they are usually repeats but may differ in a detail not shown here. Equal entries are not always repeated. Where two headings read alike, the source gives them in different places.

Assays:
Assay type in all cases: cell-based
[1] = Cell cytotoxicity CC50 assay (A549 and HeLa cells); conditions: human, 6-8 days, DMEM+2% FCS
Source text: (§1) Cells were obtained from ATCC and the virus preparation was subjected to one round of centrifugation through a 40% (V/V) glycerol to remove any interferon produced from infected cells. Growth medium was Dulbecco's modified Eagle's medium (DMEM) with 10% (v/v) foetal calf serum (FCS), Viral maintainance medium was DMEM+2% (v/v) FCS.
Cell Cytotoxicity—CC50 (Concentration at which 50% Cell Toxicity is Observed):
(§2) A549 cells and HeLa cells were used to seed a set of 96 well plates grown until 50% confluent, a 2 fold serial dilution of the compound was performed on each cell line with DMSO (only) as control starting with 100 μM of the compound. Medium used was DMEM+2% FCS (normal medium for viral growth).
(§3) Cells were allowed to grow for 6-8 days to mimic a TCID50 assay after which cell viability was determined by adding Almar blur (similar to XT) and reading at 600 nm (excitation 540 nm).

RSV = assay: Cytopathic effect (CPE) assay; conditions: human respiratory syncytial virus, read-out: CPE IC50
Source text: as §1
Cytopathic Effect (CPE) Assay—IC50:
as §2, §3

HepG2 cells = assay: Cell cytotoxicity CC50, HepG2 cells (CellTox Green); conditions: 48-hour incubation, multiple values = multiple test occasions, read-out: Tox CC50
Experimental: (§4) HepG2 cells, in media supplemented with 10% fetal bovine serum (FBS), were seeded at […] into white walled 96 well plates and incubated at 37° C., 5% CO2. Twenty-four hours post seeding media was removed and replaced with media supplemented with 2% FBS and containing final compound concentrations equal to those tested in parallel virus plaque assays. Following a further 48-hour incubation cell cytotoxicity was determined using the CellTox™ Green (Promega) kit and […] read using an appropriate protocol on a GloMax® Explorer System (Promega). During analysis DMSO containing wells were used as a negative control and lysed cells as a positive control.

RSV A2 VR-1540 = assay: Second plaque reduction assay (HEp-2 cells); conditions: multiple values = multiple test occasions
Source text: as §1, with “maintenance” for “maintainance”
The RSV plaque reduction assay is an infectivity assay which allows quantification of the number of infectious units in a distinct foci of RSV infection. This is indicated by zones of viral antigen detected by specific antibody staining within a monolayer of otherwise healthy tissue culture cells. As each plaque originates from a single infectious virus particle an accurate calculation of the anti-viral effect can be obtained by counting plaques in the presence and absence of an anti-viral compound. HEp-2 cells (ATCC, CCL23) were passaged in flasks and seeded in 96-well plates in DMEM containing antibiotics and supplemented with 10% FBS. During inoculation and subsequent incubation, cells were cultured in DMEM containing 3% FBS. 100 plaque forming unit (PFU)/well of RSV (RSV A2 VR-1540) was mixed with ten serial dilutions of compound. Subsequently, 100 μL of the virus/compound mixtures was added to confluent HEp-2 cell monolayers. The cells and virus/compound mixtures were incubated at 35° C. in a humidified 5% CO2 incubator for 1 day.
Cells were washed twice with PBS before adding 50% v/v EtOH/MeOH, and then stored at −20° C. On the day of the staining, fixative was first removed from the plates. Plates were washed 3× with PBS. A pre-titrated amount of the primary antibody was added in 60 μL PBS/2% milk powder, and plates incubated for 1 h at rt. The plates were washed 3× with PBS/0.05% Tween20 before addition of goat anti-mouse horse radish peroxidase in 60 μL PBS/2% milk powder, and incubated for 1 h at rt. Following three wash steps with PBS/0.05% Tween20, 60 μL ready-to-use TrueBlue was added and plates were incubated at rt for 10-15 min before adding MilliQ water. Plates were washed once with water, incubated for 30-60 min and after removal of water, air-dried in the dark.
Plates were scanned and analyzed using the Immunospot S6 UV analyzer, which is equipped with BioSpot analysis software for counting immunostained plaques (virospots). Plaque counts were used to calculate % infection relative to the mean of the spot count (SC) in the virus control wells for RSV. IC50/IC90 values were calculated as 50% or 90% reduction in signal, respectively, by interpolation of inhibition curves fitted with a 4-parameter nonlinear regression with a variable slope in GraphPad 5.0 (Prism).

[2] = Cell cytotoxicity CC50, HepG2 cells (CellTox Green); conditions: human, 48-hour incubation, multiple values = multiple test occasions, read-out: Tox CC50
Experimental: as §4

[3] = human respiratory syncytial virus, HEp-2, 24 h, read-out: Plaque IC50, HEp-2 cells, RSV A2, 1 day
[4] = read-out: Plaque IC50, HEp-2 cells, RSV A2, 1 day

| SMILES | CC50 (HepG2 cells) | CC50 at 48 h [2] | pIC50 (RSV A2 VR-1540; [3]) | pIC50 (RSV A2 VR-1540; [4]) | also measured |
| --- | --- | --- | --- | --- | --- |
| O=C(CNc1ccccc1)N[C@H]1N=C(c2ccccc2)c2ccccc2NC1=O [Compound 1, N-{(3S)-2-oxo-5-phenyl-2,3-dihydro-1H-1,4-benzodiazepin-3-yl](phenylamino)acetamide] |  |  |  |  | CC50 [1]: 25 µM; pIC50 (RSV; A549 cells and HeLa cells, 6-8 days, DMEM+2% FCS): 5.60 |
| CCOc1nc(F)c(F)c(NCC(=O)N[C@H]2N=C(c3ccccc3)c3ccccc3NC2=O)c1F [Compound 4, 2-[(2-ethoxy-3,5,6-trifluoropyridin-4-yl)amino]-N-{(3S)-2-oxo-5-phenyl-2,3-dihydro-1H-1,4-benzodiazepin-3-yl]acetamide] |  |  |  |  | CC50 [1]: > 100 µM; pIC50 (RSV): 5.60 |
| O=C1Nc2ccccc2C(c2ccccc2)=N[C@@H]1NC(=O)[C@H]1CCCN1c1c(F)c(F)nc(F)c1F [Compound 6, N(2R)-N-[(3S)-2-oxo-5-phenyl-2,3-dihydro-1H-1,4-benzomazepin-3-yl]-1-(2,3,5,6-tetrafluoropyridin-4-yl)pyrrolidine-2-carboxamide] | > 25 µM |  |  |  | pIC50 (RSV A2 VR-1540; HEp-2 cells, RSV A2, 1 day, read-out: Plaque IC50): 5.36 and 5.08 |
| CC(C)[C@H](Nc1c(F)c(F)nc(F)c1F)C(=O)N[C@H]1N=C(c2ccccc2)c2ccccc2NC1=O [Compound 7, (2S)-3-Methyl-N-[(3S)-2-oxo-5-phenyl-2,3-dihydro-1H-1,4-benzodiazepin-3-yl]-2-[(2,3,5,6-tetrafluoropyridin-4-yl)amino]butanamide] | > 25 µM | 16 µM | 5.29 | 5.06 and 5.00 |  |
| CC(C)[C@@H](Nc1c(F)c(F)nc(F)c1F)C(=O)N[C@H]1N=C(c2ccccc2)c2ccccc2NC1=O [Compound 8, (2R)-3-Methyl-N-[(3S)-2-oxo-5-phenyl-2,3-dihydro-1H-1,4-benzodiazepin-3-yl]-2-[(2,3,5,6-tetrafluoropyridin-4-yl)amino]butanamide] | 16.3 µM | > 25 µM |  |  |  |
| C[C@H](Nc1c(F)c(F)nc(F)c1F)C(=O)N[C@H]1N=C(c2ccccc2)c2ccccc2NC1=O [Compound 9, (2S)-N-[(3S)-2-oxo-5-phenyl-1,3-dihydro-1,4-benzodiazepin-3-yl]-2-[(2,3,5,6-tetrafluoropyridin-4-yl)amino]propanamide] |  | > 25 µM | 5.28 | 5.42 |  |
| C[C@@H](Nc1c(F)c(F)nc(F)c1F)C(=O)N[C@H]1N=C(c2ccccc2)c2ccccc2NC1=O [Compound 10, (2R)-N-[(3S)-2-oxo-5-phenyl-1,3-dihydro-1,4-benzodiazepin-3-yl]-2-[(2,3,5,6-tetrafluoropyridin-4-yl)amino]propanamide] |  | > 25 µM | 5.47 | 5.75 |  |
| O=C(N[C@H]1N=C(c2ccccc2)c2ccccc2NC1=O)[C@H](Cc1ccccc1)Nc1c(F)c(F)nc(F)c1F [Compound 11] | > 25 µM |  |  |  |  |
| O=C(CNc1nc(F)c(F)c(N2CCOCC2)c1F)N[C@H]1N=C(c2ccccc2)c2ccccc2NC1=O [Compound 14, N-[(3S)-2-oxo-5-phenyl-2,3-dihydro-1H-1,4-benzodiazepin-3-yl]-2-{[3,5,6-trifluoro-4-(morpholin-4-yl)pyridin-2-yl]amino}acetamide] |  | > 25 µM |  |  |  |
| O=C(CNc1cc(Cl)ncn1)N[C@H]1N=C(c2ccccc2)c2ccccc2NC1=O [Compound 18, 2-[(6-Chloropyrimidin-4-yl)amino]-N-[(3S)-2-oxo-5-phenyl-2,3-dihydro-1H-1,4-benzodiazepin-3-yl]acetamide] |  | > 25 µM | 5.31 | 5.03 |  |
